Consider one substance from PMC5854708, “Grass Carp Prolactin Gene: Structural Characterization and Signal Transduction for PACAP-induced Prolactin Promoter Activity” (Scientific Reports, 2018).

Assay [1] relates to grass carp PRL promoter deletion/mutation/truncation constructs in αT3-1 cells. Nature of the assay: Deletion, mutagenesis and truncation analysis of PRL promoter activity, dual-luciferase, αT3-1 cells. The class given is cell-based, grass carp (promoter); rat (αT3-1 cells, as printed). To be noted: PACAP 10 nM, 24 hrs, n = 4. The procedure:
To test the functionality of the grass carp PRL promoter, a series of deletion constructs were prepared by subcloning decreasing lengths of 5′ promoter sequence of PRL gene into the luciferase-expressing reporter pGL3.Basic. […] In this study, the upstream promoter of the carp PRL gene, including pPRL(−1156), pPRL(−914), pPRL(−670), pPRL(−448) and pPRL(−306), acted as strong promoters in αT3-1 cells. […] Subsequently, mutagenesis and truncation analysis were performed to investigate the role of transcription sites in PRL promoter activity.
Figure 3 Deletion, mutagenesis and truncation analysis of PRL promoter activity in αT3-1 cells. (A) Deletion analysis of the oPACAP38-induced PRL promoter activity. […] TEXT PRINTED IN THE PICTURE: (A) oPACAP38: pPRL(-1156).LUC: X 4.80 ± 0.15 *; pPRL(-914).LUC: X 4.51 ± 0.26 *; pPRL(-670).LUC: X 3.85 ± 0.17 *; pPRL(-448).LUC: X 3.79 ± 22 *; pPRL(-306).LUC: X 3.83 ± 0.12 *; pPRL(-166).LUC: X 3.26 ± 0.20 *; pPRL(-124).LUC: X 3.57 ± 0.19 *; pPRL(-57).LUC: X 2.09 ± 0.12 * DOUBTS OF THE COPYIST ABOUT THIS PICTURE: oPACAP38, pPRL(-448).LUC: the error reads '± 22' with no decimal point visible; '0.' may be missing or hidden / oPACAP38, pPRL(-306).LUC: 3.83 or 3.63 (small rotated print crossed by the dotted frame line) / The fold values (X ...) are printed over the oPACAP38 bars, one per promoter construct. […]

Assay [2] relates to PI3K-dependent cascades in neutrophils. To be noted: human neutrophils; cited from earlier work. An excerpt:
(§1) Given that PACAP has been reported to activate MAPK (e.g., in human SH-SY5Y neuroblastoma cells)[24], and PI3K-dependent cascades (e.g., in human neutrophils)[25], the functional role of MAPK and PI3K in PACAP-induced grass carp promoter activity were also examined. […] However, parallel treatment with the PI3K inhibi ...

Assay [3] deals with MAPK in SH-SY5Y neuroblastoma cells. To be noted: human SH-SY5Y neuroblastoma cells; cited from earlier work.
Text: as §1

Assay [4] has as its system tCREB in grass carp pituitary cells. Nature of the assay: Western blot of tCREB in primary grass carp pituitary cells. To be noted: oPACAP38, 24 hrs. A general note: In western blotting, separated proteins are transferred to a membrane and probed.

Consider “pituitary adenylate cyclase-activating peptide [PACAP]”, for which, in assay [1] (AP-1 site −136 to −130, pPRL(−166).Luc), the “PACAP-stimulated promoter activity upon mutagenesis and truncation of AP-1 site” value was “significantly suppressed”. Further, in assay [1] (C/EBPalpha site −226 to −217, pPRL(−306).Luc), the “PACAP-stimulated promoter activity upon mutagenesis and truncation of C/EBPalpha site” value was “significantly suppressed”. The “activation of PI3K-dependent cascades” value in assay [2] was “activate”. In addition, the MAPK activation result in assay [3] is recorded as “activate MAPK”. For the same substance, the “total CREB production” value in assay [4] is “stimulated total CREB production”.
